From the supplement of paper PMC10307832

Experiments:
Test in all cases: relative viability (nuclei count vs DMSO), 5 days (fraction); higher = more cells survive
[1] = compound: OCc1c[nH]c2ccccc12 [Indole-3-carbinol] + Cc1nc(Nc2ncc(C(=O)Nc3c(C)cccc3Cl)s2)cc(N2CCN(CCO)CC2)n1 [Dasatinib] (partner 0.075 µM)
Outline: (§1)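 Relative viability was taken as the ratio of nuclei in treated wells to nuclei in vehicle wells. Lung cancer cell lines in 1536-well plates received compounds by pin tool one day after seeding, either one drug alone or a fixed anchor-drug dose plus five library-drug doses (not always all listed) in √10 steps. Nuclei were counted on 4× images after 5 days of treatment, and values are medians of duplicate plates.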

[2] = compound: OCc1c[nH]c2ccccc12 [Indole-3-carbinol] + NC(=O)Nc1cc(-c2cccc(F)c2)sc1C(=O)N[C@H]1CCCNC1 [AZD7762] (partner 0.2 µM)
Outline: as §1

[3] = compound: OCc1c[nH]c2ccccc12 [Indole-3-carbinol] + Cc1cc(Nc2cc(N3CCN(C)CC3)nc(Sc3ccc(NC(=O)C4CC4)cc3)n2)n[nH]1 [Tozasertib] (partner 0.1 µM)
Outline: as §1

[4] = compound: OCc1c[nH]c2ccccc12 [Indole-3-carbinol] + N=C(N)NC(=N)NCCc1ccccc1 [Phenformin] (partner 250 µM)
Outline: as §1

[5] = compound: OCc1c[nH]c2ccccc12 [Indole-3-carbinol] + Nc1nc2[nH]cc(CCc3ccc(C(=O)N[C@@H](CCC(=O)O)C(=O)O)cc3)c2c(=O)[nH]1 [Pemetrexed] (partner 0.2 µM)
Outline: as §1

[6] = compound: OCc1c[nH]c2ccccc12 [Indole-3-carbinol] + COc1cccc2cc(-c3nc([C@H]4CC[C@H](C(=O)O)CC4)n4ncnc(N)c34)[nH]c12 [OSI-027] (partner 0.5 µM)
Outline: as §1

[7] = compound: OCc1c[nH]c2ccccc12 [Indole-3-carbinol] + CC(=O)c1c(C)c2cnc(Nc3ccc(N4CCNCC4)cn3)nc2n(C2CCCC2)c1=O [Palbociclib] (partner 0.5 µM)
Outline: as §1

[8] = compound: OCc1c[nH]c2ccccc12 [Indole-3-carbinol] + CC(=O)Nc1cccc(-n2c(=O)n(C3CC3)c(=O)c3c(Nc4ccc(I)cc4F)n(C)c(=O)c(C)c32)c1 [Trametinib] (partner 0.02 µM)
Outline: as §1

[9] = compound: OCc1c[nH]c2ccccc12 [Indole-3-carbinol] + CCNC(=O)c1noc(-c2cc(C(C)C)c(O)cc2O)c1-c1ccc(CN2CCOCC2)cc1 [Luminespib] (partner 0.01 µM)
Outline: as §1

[10] = compound: OCc1c[nH]c2ccccc12 [Indole-3-carbinol] + O=C(c1cc(Cc2n[nH]c(=O)c3ccccc23)ccc1F)N1CCN(C(=O)C2CC2)CC1 [Olaparib] (partner 8 µM)
Outline: as §1

[11] = compound: OCc1c[nH]c2ccccc12 [Indole-3-carbinol] + Nc1ncn([C@H]2C[C@H](O)[C@@H](CO)O2)c(=O)n1 [Decitabine] (partner 2 µM)
Outline: as §1

[12] = compound: OCc1c[nH]c2ccccc12 [Indole-3-carbinol] + O=C(CCCCCCC(=O)Nc1ccccc1)NO [Vorinostat] (partner 1 µM)
Outline: as §1

Indole-3-carbinol = compound: OCc1c[nH]c2ccccc12 [Indole-3-carbinol]
Outline: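 Only plates meeting two conditions passed: control CV below 25% and at least one doubling. Lung cancer cell lines, kept overnight at 37 °C in 1536-well plates, were pinned with five library-drug doses (not always all listed) √10 apart on vehicle-anchored plates and grown 5 days without medium change. A one-step fix, permeabilisation and Hoechst stain preceded 4× imaging and MetaXpress nuclear counting. Viability equals treated-well nuclei divided by vehicle-well nuclei, as the median over plates.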

[13] = compound: OCc1c[nH]c2ccccc12 [Indole-3-carbinol] + C[C@@H](Oc1cc(-c2cnn(C3CCNCC3)c2)cnc1N)c1c(Cl)ccc(F)c1Cl [Crizotinib] (partner 1 µM)
Outline: as §1

[14] = compound: OCc1c[nH]c2ccccc12 [Indole-3-carbinol] + CS(=O)(=O)N1CCN(Cc2cc3nc(-c4cccc5[nH]ncc45)nc(N4CCOCC4)c3s2)CC1 [Pictilisib] (partner 1 µM)
Outline: as §1

[15] = compound: OCc1c[nH]c2ccccc12 [Indole-3-carbinol] + CS(=O)(=O)CCNCc1ccc(-c2ccc3ncnc(Nc4ccc(OCc5cccc(F)c5)c(Cl)c4)c3c2)o1 [Lapatinib] (partner 2 µM)
Outline: as §1

[16] = compound: OCc1c[nH]c2ccccc12 [Indole-3-carbinol] + CC(C)C[C@H](NC(=O)[C@H](Cc1ccccc1)NC(=O)c1cnccn1)B(O)O [Bortezomib] (partner 0.002 µM)
Outline: as §1

[17] = compound: OCc1c[nH]c2ccccc12 [Indole-3-carbinol] + CC1(C)CCC(c2ccc(Cl)cc2)=C(CN2CCN(c3ccc(C(=O)NS(=O)(=O)c4ccc(N[C@H](CCN5CCOCC5)CSc5ccccc5)c(S(=O)(=O)C(F)(F)F)c4)cc3)CC2)C1 [Navitoclax] (partner 0.5 µM)
Outline: as §1

[18] = compound: OCc1c[nH]c2ccccc12 [Indole-3-carbinol] + COc1cc2c(Oc3ccc(NC(=O)C4(C(=O)Nc5ccc(F)cc5)CC4)cc3F)ccnc2cc1OCCCN1CCOCC1 [Foretinib] (partner 0.25 µM)
Outline: as §1

[19] = compound: OCc1c[nH]c2ccccc12 [Indole-3-carbinol] + Cc1nc(NC(=O)N2CCC[C@H]2C(N)=O)sc1-c1ccnc(C(C)(C)C(F)(F)F)c1 [Alpelisib] (partner 2 µM)
Outline: as §1

[20] = compound: OCc1c[nH]c2ccccc12 [Indole-3-carbinol] + C[C@]1(O)C[C@@H](c2nc(-c3ccc4ccc(-c5ccccc5)nc4c3)c3c(N)nccn32)C1 [Linsitinib] (partner 1 µM)
Outline: as §1

## NCI-H522
[1]; first compound 0.253 µM
  relative viability: 0.806
[1]; first compound 0.8 µM
  relative viability: 0.961
[1]; first compound 2.53 µM
  relative viability: 0.818
[1]; first compound 8 µM
  relative viability: 0.796
[2]; first compound 0.253 µM
  relative viability: 0.78
[2]; first compound 0.8 µM
  relative viability: 0.92
[2]; first compound 2.53 µM
  relative viability: 0.956
[2]; first compound 8 µM
  relative viability: 0.912
[3]; first compound 0.253 µM
  relative viability: 0.63
[3]; first compound 0.8 µM
  relative viability: 0.525
[3]; first compound 2.53 µM
  relative viability: 0.567
[3]; first compound 8 µM
  relative viability: 0.538
[4]; first compound 0.253 µM
  relative viability: 0.621
[4]; first compound 0.8 µM
  relative viability: 0.661
[4]; first compound 2.53 µM
  relative viability: 0.724
[4]; first compound 8 µM
  relative viability: 0.671
[5]; first compound 0.253 µM
  relative viability: 0.979
[5]; first compound 0.8 µM
  relative viability: 1.12
[5]; first compound 2.53 µM
  relative viability: 1.08
[5]; first compound 8 µM
  relative viability: 1.04
[6]; first compound 0.253 µM
  relative viability: 0.646
[6]; first compound 0.8 µM
  relative viability: 0.821
[6]; first compound 2.53 µM
  relative viability: 0.685
[6]; first compound 8 µM
  relative viability: 0.836
[7]; first compound 0.253 µM
  relative viability: 0.87
[7]; first compound 0.8 µM
  relative viability: 1.02
[7]; first compound 2.53 µM
  relative viability: 1.31
[7]; first compound 8 µM
  relative viability: 1.15
[8]; first compound 0.253 µM
  relative viability: 0.794
[8]; first compound 0.8 µM
  relative viability: 0.798
[8]; first compound 2.53 µM
  relative viability: 0.839
[8]; first compound 8 µM
  relative viability: 0.749
[9]; first compound 0.253 µM
  relative viability: 1.17
[9]; first compound 0.8 µM
  relative viability: 1.05
[9]; first compound 2.53 µM
  relative viability: 1.1
[9]; first compound 8 µM
  relative viability: 0.949
[10]; first compound 0.253 µM
  relative viability: 0.657
[10]; first compound 0.8 µM
  relative viability: 0.564
[10]; first compound 2.53 µM
  relative viability: 0.663
[10]; first compound 8 µM
  relative viability: 0.608
[11]; first compound 0.253 µM
  relative viability: 0.698
[11]; first compound 0.8 µM
  relative viability: 0.699
[11]; first compound 2.53 µM
  relative viability: 0.803
[11]; first compound 8 µM
  relative viability: 0.689
[12]; first compound 0.253 µM
  relative viability: 1.1
[12]; first compound 0.8 µM
  relative viability: 0.694
[12]; first compound 2.53 µM
  relative viability: 0.808
[12]; first compound 8 µM
  relative viability: 0.95
Indole-3-carbinol; 0.253 µM
  relative viability: 1.01
Indole-3-carbinol; 0.8 µM
  relative viability: 0.855
Indole-3-carbinol; 2.53 µM
  relative viability: 0.931
Indole-3-carbinol; 8 µM
  relative viability: 0.976

## NCI-H1299
[13]; first compound 0.253 µM
  relative viability: 0.924
[13]; first compound 0.8 µM
  relative viability: 1
[13]; first compound 2.53 µM
  relative viability: 0.952
[13]; first compound 8 µM
  relative viability: 0.906
[14]; first compound 0.253 µM
  relative viability: 0.795
[14]; first compound 0.8 µM
  relative viability: 0.879
[14]; first compound 2.53 µM
  relative viability: 0.691
[14]; first compound 8 µM
  relative viability: 0.761
[15]; first compound 0.253 µM
  relative viability: 0.892
[15]; first compound 0.8 µM
  relative viability: 0.997
[15]; first compound 2.53 µM
  relative viability: 0.925
[15]; first compound 8 µM
  relative viability: 0.945
[16]; first compound 0.253 µM
  relative viability: 0.977
[16]; first compound 0.8 µM
  relative viability: 1.02
[16]; first compound 2.53 µM
  relative viability: 1.01
[16]; first compound 8 µM
  relative viability: 1.03
[17]; first compound 0.253 µM
  relative viability: 1.01
[17]; first compound 0.8 µM
  relative viability: 1.05
[17]; first compound 2.53 µM
  relative viability: 1.03
[17]; first compound 8 µM
  relative viability: 1.02
[18]; first compound 0.253 µM
  relative viability: 1.07
[18]; first compound 0.8 µM
  relative viability: 1.07
[18]; first compound 2.53 µM
  relative viability: 1.14
[18]; first compound 8 µM
  relative viability: 1.04
[19]; first compound 0.253 µM
  relative viability: 1.05
[19]; first compound 0.8 µM
  relative viability: 1.11
[19]; first compound 2.53 µM
  relative viability: 1.11
[19]; first compound 8 µM
  relative viability: 1.01
[20]; first compound 0.253 µM
  relative viability: 0.986
[20]; first compound 0.8 µM
  relative viability: 1
[20]; first compound 2.53 µM
  relative viability: 1.02
[20]; first compound 8 µM
  relative viability: 0.869
[10]; first compound 0.253 µM
  relative viability: 0.907
[10]; first compound 0.8 µM
  relative viability: 0.995
[10]; first compound 2.53 µM
  relative viability: 0.954
[10]; first compound 8 µM
  relative viability: 0.952
Indole-3-carbinol; 0.253 µM
  relative viability: 1.02
Indole-3-carbinol; 0.8 µM
  relative viability: 1.04
Indole-3-carbinol; 2.53 µM
  relative viability: 0.999
Indole-3-carbinol; 8 µM
  relative viability: 0.989
